Molecular target: T1, mu opiate receptor (MOR) (Rattus norvegicus, UniProt P33535)
T1 construct: from tissue; host or cells: striatum (membrane preparation)
Assay: MOR agonist activity using [35S]GTPgS binding assay in striatal membranes
Type: biochemical
Design: MOR agonist activity (preliminary study): unit of the concentration uncertain
Conditions: for MOR agonist activity (preliminary study): average of two runs
Protocol: To assess the mu opiate receptor (MOR) agonist activity of positive compounds from the FLNA screening, compounds were tested in a [^35S]GTPgS binding assay using striatal membranes. […] This assay measures a functional consequence of receptor occupancy at one of the earliest receptor-mediated events. The assay permits for traditional pharmacological parameters of potency, efficacy and antagonist affinity, with the advantage that agonist measures are not subjected to amplification or other modulation that may occur when analyzing parameters further downstream of the receptor.
Thus, striatal tissue was homogenized in 10 volumes of ice cold 25 mM HEPES buffer, pH 7.4, which contained 1 mM EGTA, 100 mM sucrose, 50 mg/ml leupeptin, 0.04 mM PMSF, 2 mg/ml soybean trypsin inhibitor and 0.2% 2-mercaptoethanol. The homogenates were centrifuged at 800×g for 5 minutes and the supernatants were centrifuged at 49,000×g for 20 minutes. The resulting pellets were suspended in 10 volume of reaction buffer, which contained 25 mM HEPES, pH 7.5, 100 mM NaCl, 50 mg/ml leupeptin, 2 mg/ml soybean trypsin inhibitor, 0.04 mM PMSF and 0.02% […].
The resultant striatal membrane preparation (200 mg) was admixed and maintained (incubated) at 30° C. for 5 minutes in reaction buffer as above that additionally contained 1 mM MgCl2 and 0.5 nM [^35S]GTPgS (0.1 mCi/assay, PerkinElmer Life and Analytical Sciences) in a total volume of 250 ml and continued for 5 minutes in the absence or presence of 0.1-10 mM of an assayed compound of interest. The reaction was terminated by dilution with 750 ml of ice-cold reaction buffer that contained 20 mM MgCl2 and 1 mM EGTA and immediate centrifugation at 16,000×g for 5 minutes.
The resulting pellet was solubilized by sonicating for 10 seconds in 0.5 ml of immunoprecipitation buffer containing 0.5% digitonin, 0.2% sodium cholate and 0.5% NP-40. Normal rabbit serum (1 ml) was added to 1 ml of lysate and incubated at 25° C. for 30 minutes. Nonspecific immune complexes were removed by incubation with 25 ml of protein A/G-conjugated agarose beads at 25° C. for 30 minutes followed by centrifugation at 5,000×g at 4° C. for 5 minutes. The supernatant was divided and separately incubated at 25° C. for 30 minutes with antibodies raised against Gao proteins (1:1,000 dilutions).
The immunocomplexes so formed were collected by incubation at 25° C. for 30 minutes with 40 ml of agarose-conjugated protein A/G beads and centrifugation at 5,000×g at 4° C. for 5 minutes. The pellet was washed and suspended in buffer containing 50 mM Tris-HCl, pH 8.0, and 1% NP-40. The radioactivity in the suspension was determined by liquid scintillation spectrometry. […] DAMGO (1 or 10 mM) was used as a positive control.

[1] = 0.1 μM compound as agonist, Series C-2 table
[2] = 1 μM compound as agonist, Series C-2 table
[3] = 0.1 (unit uncertain) compound as agonist
[4] = 1 (unit uncertain) compound as agonist
[5] = 0.1 μM compound as agonist, Series C-1 table
[6] = 1 μM compound as agonist, Series C-1 table

T1 sequence (P33535 whole entry): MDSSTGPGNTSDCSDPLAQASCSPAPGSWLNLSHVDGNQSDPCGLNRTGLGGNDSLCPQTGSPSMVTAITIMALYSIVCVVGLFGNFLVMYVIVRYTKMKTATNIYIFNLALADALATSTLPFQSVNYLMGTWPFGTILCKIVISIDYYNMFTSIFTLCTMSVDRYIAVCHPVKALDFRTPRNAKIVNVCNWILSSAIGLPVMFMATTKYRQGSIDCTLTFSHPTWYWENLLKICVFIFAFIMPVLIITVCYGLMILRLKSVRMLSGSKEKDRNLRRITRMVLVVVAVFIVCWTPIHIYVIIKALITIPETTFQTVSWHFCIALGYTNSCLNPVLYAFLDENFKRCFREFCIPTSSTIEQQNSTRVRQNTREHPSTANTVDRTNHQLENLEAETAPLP

SMILES | MOR agonist activity ([35S]GTPgS binding to Gao) [5] | MOR agonist activity ([35S]GTPgS binding to Gao) (1 μM + BFNA, Series C-1 table) | MOR agonist activity ([35S]GTPgS binding to Gao) [6] | further results
O=C1CN(C2CCc3ccccc3C2)C2(CCN(S(=O)(=O)c3ccccc3)CC2)N1 (stereo not drawn) [C0136M/ (P5)] |  |  |  | MOR agonist activity ([35S]GTPgS binding to Gao) [1]: 176.8%; MOR agonist activity ([35S]GTPgS binding to Gao) (1 μM + BFNA, Series C-2 table): 74.5%; MOR agonist activity ([35S]GTPgS binding to Gao) [2]: 237.3%
O=C1CN(Cc2ccccc2)C2(CCN(C3CCCCC3)CC2)N1 [C0137M P7] |  |  |  | MOR agonist activity ([35S]GTPgS binding to Gao) [1]: 180.8%; MOR agonist activity ([35S]GTPgS binding to Gao) (1 μM + BFNA, Series C-2 table): 55.8%; MOR agonist activity ([35S]GTPgS binding to Gao) [2]: 193.8%
O=S(=O)(c1ccc(OC(F)(F)F)cc1)N1CCOC12CCN(CC1CC1)CC2 [Compound 4] |  |  |  | MOR agonist activity (preliminary study) (1 mM + bNFA): 49.5%; MOR agonist activity (preliminary study) [3]: 133.9%; MOR agonist activity (preliminary study) [4]: 165.2%
Cc1ccc(S(=O)(=O)N2CCOC23CCN(CC2CCC2)CC3)cc1 [Compound 9] |  |  |  | MOR agonist activity (preliminary study) (1 mM + bNFA): 56.6%; MOR agonist activity (preliminary study) [3]: 156.6%; MOR agonist activity (preliminary study) [4]: 197.2%
C=CCN1CCC2(CC1)OCCN2S(=O)(=O)c1ccc(C)cc1 [Compound 10] |  |  |  | MOR agonist activity (preliminary study) (1 mM + bNFA): 60.4%; MOR agonist activity (preliminary study) [3]: 163.1%; MOR agonist activity (preliminary study) [4]: 191.8%
COc1ccc(S(=O)(=O)N2CCC3(CC2)OCCN3S(=O)(=O)c2ccc(OC)cc2)cc1 [Compound 7866] | 152.3% | 62.4% | 308.2% | 
Cc1ccc(S(=O)(=O)N2CCC3(CC2)OCCN3S(=O)(=O)c2ccc(C)cc2)cc1 [Compound C0001] | 129.3% | 33.9% | 184.3% | 
COc1cccc(S(=O)(=O)N2CCC3(CC2)OCCN3S(=O)(=O)c2cccc(OC)c2)c1 [Compound C0002] | 88.4% | 3.9% | 93.8% | 
COc1ccccc1S(=O)(=O)N1CCC2(CC1)OCCN2S(=O)(=O)c1ccccc1OC [Compound C0003] | 162.3% | 107.7% | 215.9% | 
N#Cc1ccccc1S(=O)(=O)N1CCC2(CC1)OCCN2S(=O)(=O)c1ccccc1C#N [Compound C0004] | 122.0% | 65.8% | 228.4% | 
O=S(=O)(c1cccc(OC(F)(F)F)c1)N1CCC2(CC1)OCCN2S(=O)(=O)c1cccc(OC(F)(F)F)c1 [Compound C0005] | 180.4% | 166.4% | 227.2% | 
O=S(=O)(c1ccc(OC(F)(F)F)cc1)N1CCC2(CC1)OCCN2S(=O)(=O)c1ccc(OC(F)(F)F)cc1 [Compound C0006] | 121.5% | 4.6% | 204.0% | 
CC(C)c1ccc(S(=O)(=O)N2CCC3(CC2)OCCN3S(=O)(=O)c2ccc(C(C)C)cc2)cc1 [Compound C0007] | 79.1% | 10.9% | 195.0% | 
N#Cc1ccc(S(=O)(=O)N2CCC3(CC2)OCCN3S(=O)(=O)c2ccc(C#N)cc2)cc1 [Compound C0008] | 71.2% | 2.8% | 201.6% | 
CS(=O)(=O)c1ccc(S(=O)(=O)N2CCC3(CC2)OCCN3S(=O)(=O)c2ccc(S(C)(=O)=O)cc2)cc1 [Compound C0009] | 146.3% | 26.4% | 256.2% | 
O=S(=O)(c1ccc(-c2ccccc2)cc1)N1CCC2(CC1)OCCN2S(=O)(=O)c1ccc(-c2ccccc2)cc1 [Compound C0010] | 136.5% | 89.1% | 307.0% | 

SMILES | MOR agonist activity ([35S]GTPgS binding to Gao) [5] | MOR agonist activity ([35S]GTPgS binding to Gao) (1 μM + BFNA, Series C-1 table) | MOR agonist activity ([35S]GTPgS binding to Gao) [6] | further results
CC(=O)c1ccc(S(=O)(=O)N2CCC3(CC2)OCCN3S(=O)(=O)c2ccc(C(C)=O)cc2)cc1 [Compound C0011] | 217.0% | 19.0% | 305.0% | MOR agonist activity ([35S]GTPgS binding to Gao) [1]: 217.0%; MOR agonist activity ([35S]GTPgS binding to Gao) (1 μM + BFNA, Series C-2 table): 19.0%; MOR agonist activity ([35S]GTPgS binding to Gao) [2]: 305.0%
O=S(=O)(c1ccc(C(F)(F)F)cc1)N1CCC2(CC1)OCCN2S(=O)(=O)c1ccc(C(F)(F)F)cc1 [Compound C0012] | 96.8% | 184.4% | 224.8% | 
CC(=O)Nc1ccc(S(=O)(=O)N2CCC3(CC2)OCCN3S(=O)(=O)c2ccc(NC(C)=O)cc2)cc1 [Compound C0013] | 156.6% | 39.6% | 301.2% | 
Cc1cccc(S(=O)(=O)N2CCC3(CC2)OCCN3S(=O)(=O)c2cccc(C)c2)c1 [Compound C0014] | 144.9% | 76.3% | 153.5% | 
Cc1ccccc1S(=O)(=O)N1CCC2(CC1)OCCN2S(=O)(=O)c1ccccc1C [Compound C0015] | 138.7% | 126.8% | 204.7% | 
O=S(=O)(c1ccccc1)N1CCC2(CC1)OCCN2S(=O)(=O)c1ccccc1 [Compound C0016] | 172.7% | 96.7% | 230.5% | 
COc1ccc(C(=O)N2CCC3(CC2)OCCN3C(=O)c2ccc(OC)cc2)cc1 [Compound C0017] | 153.8% | 94.1% | 284.5% | 
COc1ccc(C(=O)N2CCC3(CC2)OCCN3S(=O)(=O)c2ccc(OC)cc2)cc1 [Compound C0018] | 195.5% | 106.5% | 247.7% | 
COc1ccc(C(=O)N2CCOC23CCN(S(=O)(=O)c2ccc(OC)cc2)CC3)cc1 [Compound C0019] | 104.4% | 52.8% | 176.6% | 
O=C(O)c1ccc(C(=O)N2CCC3(CC2)OCCN3S(=O)(=O)c2ccc(C(=O)O)cc2)cc1 [Compound C0021] | 159.7% | 90.7% | 192.0% | 
O=C(c1ccc([N+](=O)[O-])cc1)N1CCC2(CC1)OCCN2S(=O)(=O)c1ccc([N+](=O)[O-])cc1 [Compound C0022] | 194.3% | 13.4% | 328.7% | 
CNc1ccc(S(=O)(=O)N2CCC3(CC2)OCCN3S(=O)(=O)c2ccc(NC)cc2)cc1 [Compound C0024] | 178.4% | 59.3% | 229.6% | 
O=S(=O)(c1ccc(Br)cc1)N1CCC2(CC1)OCCN2S(=O)(=O)c1ccc(Br)cc1 [Compound C0025] | 235.7% | 80.2% | 320.7% | 
COc1ccc(S(=O)(=O)N2CCC3(CC2)NCCO3)cc1 [Compound C0026] |  |  |  | MOR agonist activity ([35S]GTPgS binding to Gao) [1]: 207.2%; MOR agonist activity ([35S]GTPgS binding to Gao) (1 μM + BFNA, Series C-2 table): 21.2%; MOR agonist activity ([35S]GTPgS binding to Gao) [2]: 288.4%
COc1ccc(S(=O)(=O)N2CCOC23CCNCC3)cc1 [Compound C0027] |  |  |  | MOR agonist activity ([35S]GTPgS binding to Gao) [1]: 233.2%; MOR agonist activity ([35S]GTPgS binding to Gao) (1 μM + BFNA, Series C-2 table): 72.2%; MOR agonist activity ([35S]GTPgS binding to Gao) [2]: 313.9%

Source: patent US20220233512A1, “INHIBITING AN IMMUNE RESPONSE MEDIATED BY ONE OR MORE OF TLR2, RAGE, CCR5, CXCR4 AND CD4” (priority 2020, published 2022)
